Experiments:
[1] = system: female Syrian golden hamsters; assay: Post-coital antifertility activity in mated hamsters, subcutaneous (autopsy on day 14: implantation sites, live fetuses); type: in vivo, Syrian golden hamster; conditions: for ED50: Mesocricetus auratus, sc, s.c. hamsters, days 4-8 of pregnancy, read-out: ED50 (100% activity, i.e. absence of live fetuses, in 50% of the animals); for antifertility activity (active according to the criteria): s.c. in sesame oil, 10 mg/kg daily for 5 days (days 4-8 of pregnancy), hamsters
Description: (§1) Representative experiments for assessing antifertility activity were carried out with female Syrian golden hamsters weighing 100 to 130 g. The animals were mated and the presence of sperm in the vagina was taken as evidence of mating. The day sperm was detected was considered day one of pregnancy, since in our laboratory and those of other investigators 90 to 100% of animals that mate as evidenced by vaginal sperm are pregnant.
(§2) Pregnancy was later confirmed at the time of autopsy by presence of fetuses or implantation sites in the uterus.
(§3) Even if an animal aborts the fetus, implantation scars still remain as evidence that the animal has been pregnant.
The animals were autopsied on day 14 of pregnancy and the uteri were examined for evidence of pregnancy (implantation sites, fetal resorptions or live fetuses), hemorrage, and evidence of abnormalities of the uterus, placenta or fetuses.

hamsters = assay: Post-coital antifertility activity in mated hamsters, oral route; type: in vivo, Syrian golden hamster; conditions: for reduction of live fetuses: oral, 20 mg/Kg, hamsters
Description: as §1, §2, §3
The animals were autopsied on day 14 of pregnancy and the uteri were examined for evidence of pregnancy (implantation sites, fetal resorptions or live fetuses), hemorrage, and evidence of abnormalities of the uterus, placenta or fetuses. A compound was considered to be active if there was a reduction of live fetuses in at least 60% of the treated animals and the presence of implantation sites proves the animal to have been pregnant. […] The compounds were then studied for dose-activity relationships and the corresponding ED50 values i.e., 100% activity (absence of live fetuses) in 50% of the animals, were also determined. The following table reports the ED50 values of some representative compounds of the invention:
Favorable results were also obtained by administering the compounds of the invention by oral route. The experiments for assessing this property were carried out on hamsters following the same procedure as above, with the obvious exception that the compounds were adminstered orally instead of subcutaneously.

| Compound | ED50 [1] [mg/kg] | antifertility activity (active according to the criteria) [1] | ED50 (hamsters; Mesocricetus auratus, po, p.o. hamsters, read-out: ED50 (100% activity, i.e. absence of live fetuses, in 50% of the animals)) [mg/kg] | reduction of live fetuses (hamsters) [%] |
| --- | --- | --- | --- | --- |
| COc1cccc(-c2n[nH]c(-c3ccccc3CO)n2)c1 [Example 1, 5-(2-hydroxymethylphenyl)-3-(3-methoxyphenyl)-1H-,1,2,4-triazole] | 0.08 | active | 10 | 60 |
| COc1cccc(-c2nc(-c3ccccc3C=O)n[nH]2)c1 [Example 3, 2-[5-(3-methoxyphenyl)-1H-1,2,4-triazol-3yl]benzaldehyde] | 0.1 | active | – | 60 |
